In patent publication US10342804B2, “Steroid compound for use in the treatment of hepatic encephalopathy” (Umecrine Cognition AB, priority 2014, dated 2019):

Key:
blood ammonia = test: Ammonia determination in blood (Example 5); assay type: in vivo, rat
Excerpt: The study was divided into two series with animals (male Wistar rats), each series included the following groups; Controls treated with vehicle (CV, n=8 per series), Controls treated with 3α-ethynyl-3β-hydroxyandrostan-17-one oxime (C+GAM, n=8 per series), hyperammonemic rats treated with vehicle (HAV, n=8 per series), hyperammonemic rats treated with 3α-ethynyl-3β-hydroxyandrostan-17-one oxime (HA+GAM, n=8 per series). The once daily treatment with 3α-ethynyl-3β-hydroxyandrostan-17-one oxime at 20 mg/kg or with vehicle was performed with subcutaneous injections of 1 ml/kg around 9 a.m. Treatment started one week after starting with the ammonium containing diet and continued for the whole experimental period.
Blood was obtained from the tail of the rats (from Example 2) in the end of second week of ammonia treatment and first week of 3α-ethynyl-3β-hydroxyandrostan-17-one oxime treatment and also from the neck during the animal sacrifice. To obtain the plasma it was added EDTA […] and centrifuged at 1500 r.p.m during 5 minutes.
Ammonia concentration in blood samples was measured using the Pocket chem BA (Woodley Equipment Company Ltd, United Kingdom), an ammonia analyzer. The device enables immediate testing and delivers results in 3 minutes and 20 s. It also eliminates the need for pre-processes such as centrifugal separation.

[1] = test system: receptors, ion channels and enzymes, including all major classes of neurotransmitter receptors; test: Binding selectivity screen, 113 targets (Perkin Elmer customized screen); conditions: 10 μM, duplicate; neurotransmitter related receptors, steroid receptors, peptide receptors
Protocol: The binding of 3α-ethynyl-3β-hydroxyandrostan-17-one oxime was determined for receptors, ion channels and enzymes, including all major classes of neurotransmitter receptors. In total 113 targets were tested in duplicate with 3α-ethynyl-3β-hydroxyandrostan-17-one oxime at 10 μM (Perkin Elmer, Customized screen). Binding activity was defined as greater than or equal to 50% inhibition of ligand binding.

hyperammonemic rats [2] = test: Morris water maze memory test, hyperammonemic rats (Example 9); assay type: in vivo, rat
Protocol: (§1) Male Wistar rats (140-160 g) were made hyperammonemic by feeding them a diet containing ammonium acetate (30% by weight) (Felipo et al, European Journal of Biochemistry, 1988, 176, 567-571).
(§2) 3α-ethynyl-3β-hydroxyandrostan-17-one oxime in sesame oil was administered by subcutaneous injections in the back of the rats, once daily. Two different sets of experiments were performed in hyperammonemic rats. In the first set four groups of rats were used: 1) control rats injected with vehicle; 2) hyperammonemic rats injected with vehicle; 3) control rats injected with 20 mg/Kg of 3α-ethynyl-3β-hydroxyandrostan-17-one oxime and 4) hyperammonemic rats injected with 20 mg/Kg of 3α-ethynyl-3β-hydroxyandrostan-17-one oxime.
(§3) In the second set of experiments five groups of rats were used: 1) control rats injected with vehicle; 2) hyperammonemiac rats injected with vehicle and 3-5) hyperammonemic rats injected with 3, 10 or 20 mg/Kg of 3α-ethynyl-3β-hydroxyandrostan-17-one oxime. In each experiment 6-8 rats per group were used.
The test was carried out as described by Monfort et al. (European Journal of Neuroscience, 2007, 25, 2103-2111) using a circular pool (160 cm diameter, 40 cm height) arbitrarily divided into four quadrants. After pre-training, the rats were trained to learn the fixed location of the invisible platform over 3 days. Training involved placing the rat into the pool facing the wall in one of the three quadrants lacking the platform. A different starting point was randomly used on each trial. Training consisted of three swims per day. Each animal was allowed a maximum of 120 seconds to find the platform and was left for 20 seconds on the platform. […] The time needed to find the hidden platform was recorded manually and used as a measure of learning of the task.
Spatial memory was assessed 24 hours later by removing the platform and measuring the time spent by the rat in the quadrant where the platform was.

hyperammonemic rats [3] = test: Radial maze test, hyperammonemic rats (Example 10); assay type: in vivo, rat
Protocol: as §1, §2, §3
The apparatus was composed of a central area that gave access to eight equally-sized arms. The arms were 70 cm long and 10 cm wide and the central area was 30 cm in diameter. […] Rats were allowed to explore the maze for 10 minutes on two consecutive days in the presence of distal cues to adapt to the maze. Training in the radial maze was composed of three trials per day on six consecutive days. The task involved locating four pellets, each placed at the end of a different arm according to a random configuration as described by Hernandez-Rabaza et al. (Addiction Biology, 2010, 15, 413-423). The number of working memory errors (visits to arms already visited in the same trial) were recorded and expressed as working errors.

[4] = Exposure in plasma and brain tissue, PCS rats (Example 13); assay type: in vivo, rat; conditions: for Total concentration in plasma: at the time for behavioral testing
Protocol: Male Wistar rats (220-240 g) were anesthetized with isoflurane, and an end-to side porta-caval anastomosis was performed as described by Lee and Fisher (Surgery, 1961, 50, 668-672).
Rats that were subjected to the porta-caval anastomosis procedure are herein referred to as “PCS rats”.
as §2
For the experiments using PCS rats, the following groups of rats were used: 1) Sham rats injected with vehicle; 2) PCS rats injected with vehicle; 3-4) PCS rats injected with 0.7 or 2.5 mg/Kg of 3α-ethynyl-3β-hydroxyandrostan-17-one oxime. The number of rats used in each experiment is either shown in the corresponding Figure or given in the description of the corresponding Figure.
At the end of the treatment period plasma was collected from the tail vein, and after sacrifice by decapitation brains were collected and immediately frozen on dry ice. For analysis of 3α-ethynyl-3β-hydroxyandrostan-17-one oxime exposure, brain tissue was homogenized with a 1:4 ratio of tissue: PBS (pH 7.4) and then extracted with a 2-fold volume of methanol:acetonitrile (1:1), while plasma was protein-precipitated with a 3-fold volume with acetonitrile. Analyses were performed by Waters ACQUITY UPLC+Waters XEVO-TQS triple quadrupole mass spectrometer (Admescope Oy, Oulu, Finland). For calculations of the amount of free 3α-ethynyl-3β-hydroxyandrostan-17-one oxime exposure in the brain the fraction unbound (Fb) in brain homogenates were determined by dialysis, Fub in HA=[…] and Fub in PCS=1.43% (Admescope Oy, Oulu, Finland).

SMILES: C#C[C@]1(O)CC[C@@]2(C)C(CC[C@@H]3[C@@H]2CC[C@]2(C)/C(=N\O)CC[C@@H]32)C1 (stereo partly drawn) [3α-ethynyl-3β-hydroxyandrostan-17-one oxime]
- Blood ammonia levels (blood ammonia; control rats treated with 20 mg/kg s.c. once daily): 55 ± 7 µM
- Blood ammonia levels (blood ammonia; hyperammonemic rats treated with 20 mg/kg s.c. once daily): 139 ± 15 µM
- Binding activity (greater than or equal to 50% inhibition of ligand binding) [1]: did not show binding activity
- Percentage of time spent in the correct quadrant, Morris water maze memory test (hyperammonemic rats [2]; 3 mg/kg): 41±4%
- Percentage of time spent in the correct quadrant, Morris water maze memory test (hyperammonemic rats [2]; 10 mg/kg): 42±5%
- Percentage of time spent in the correct quadrant, Morris water maze memory test (hyperammonemic rats [2]; 20 mg/kg): 38±3%
- Number of working errors in days 1-2, radial maze (hyperammonemic rats [3]; 3 mg/kg): 6.5±2.8 errors
- Number of working errors in days 1-2, radial maze (hyperammonemic rats [3]; 10 mg/kg): 8.8±1.9 errors
- Number of working errors in days 1-2, radial maze (hyperammonemic rats [3]; 20 mg/kg): 12±2 errors
- Unbound concentration in the brain ([4]; 0.7 mg/kg/day s.c.): 6.18 ± 0.97 nmol/kg
- Total concentration in plasma ([4]; 0.7 mg/kg/day s.c.): 0.48 ± 0.09 µM
- Unbound concentration in the brain ([4]; 2.5 mg/kg/day s.c.): 17 ± 2 nmol/kg
- Total concentration in plasma ([4]; 2.5 mg/kg/day s.c.): 1.64 ± 0.30 µM
